Experimental data as given in US4983593A, “Pharmaceutical composition of dihydropyridine compound” (priority 1988, dated 1991).
Counter-ions that a name gives are not always drawn.

Tests used:
[1] = Solubility improvement of NZ-105 by pulverizing or by formulating other polymers; type: physicochemical; conditions: pulverizing crystals
Text: This entailed larger size tablets. […] This also entailed larger size tablets.

[2] = background; cited from earlier work
[3] = background; cited from earlier work; remark: listed apart in the source

Structure (SMILES)	Improvement in solubility (in words) [1]	Solubility in water (in words) [2]	Absorption through gastrointestinal tracts (in words) [3]
CC1=C(C(=O)OCCN(Cc2ccccc2)c2ccccc2)C(c2cccc([N+](=O)[O-])c2)C(P2(=O)OCC(C)(C)CO2)=C(C)N1 (stereo not drawn) [NZ-105, 5-(5,5-dimethyl-1,3,2-dioxaphosphorinane-2-yl)-1,4-dihydro-2,6-dimethyl-4-(3-nitrophenyl)-3-pyridine carboxylic acid 2-(phenyl(phenylmethyl)amino) ethyl ester P-oxide hydrochlorideethanol]	did not result in an improvement in the solubility of NZ-105 of a degree to promote its bioavailability	–	–
COC(=O)C1=C(C)NC(C)=C(C(=O)OCCN(C)Cc2ccccc2)C1c1cccc([N+](=O)[O-])c1 (stereo not drawn) [Nicardipine]	–	very poor solubility in water	can not be absorbed through gastrointestinal tracts in a sufficient amount
